{"source": "patent US20250367191A1", "about": "“TREATMENT OF MITOCHONDRIAL DISEASES WITH A CNS-PENETRANT SGC STIMULATOR ZAGOCIGUAT” (Tisento Therapeutics Inc., priority 2022, published 2025)", "key": {"[1]": {"tested_on": "mice", "conditions": "mice pretreated, compared with vehicle-treated mice; cited from earlier work"}, "[2]": {"tested_on": "rats", "conditions": "cited from earlier work"}, "[3]": {"tested_on": "healthy elderly subjects", "conditions": "cited from earlier work"}, "[4]": {"tested_on": "participants diagnosed with MELAS", "experiment": "MELAS study: patient-reported outcomes (PGIC, MFIS, PROMIS)", "type": "in vivo, human", "description": "The Patient-reported Outcomes Measurement Information System (PROMIS) Item Bank v2.0—Cognitive Function is a self-administered questionnaire that assesses multiple aspects of mental fatigue and cognitive function in the past 7 days prior to the administration of the questionnaire. It uses a Likert-type rating scale (eg, “Never” to “Very often”).\nThe Patient Global Impression of Change (PGIC) is a single-item questionnaire that assesses the participant's perception of change in his/her overall health status since the start of the study using a Likert-type rating scale (eg, “Very much improved” to “Very much worse”).\nThe Modified Fatigue Impact Scale (MFIS) is a self-administered questionnaire that assesses the impact of fatigue in terms of physical, cognitive, and psychosocial functioning over the past 4 weeks. Patients respond using a Likert-type rating scale. (eg, “Never” to “Almost always”)."}, "[5]": {"tested_on": "rats", "conditions": "cited from earlier work", "remark": "listed apart in the source"}, "[6]": {"experiment": "Two Phase 1 studies in healthy adults aged 18 to 79: safety, PK, PD", "type": "in vivo, human", "description": "The 15-mg Compound I QD dose was selected based on safety, tolerability, PK, and PD data from repeated dosing at this level in two Phase 1 studies conducted in healthy adults aged 18 to 79 years. […] Across the Phase 1 studies, no safety concerns were identified. […] No impact on cognitive performance measures was observed."}, "[7]": {"experiment": "Clinical trial in patients with stable schizophrenia: PK and safety", "type": "in vivo, human", "conditions": "total oral daily dosages up to 60 mg per day"}, "[8]": {"tested_on": "healthy participants", "experiment": "Phase I trial NCT03856827, healthy participants aged 18 to 62: EEG", "type": "in vivo, human", "experimental": "Electroencephalography (EEG) is a technique that measures electrical activity in the brain (brain electrophysiology) by using electrodes places on the scalp. EEG-power spectral signals may be analyzed at different frequencies or frequency bands. They were analyzed at the following frequency bands in two prior phase 1 clinical trials with Compound I described below: Delta-1-4 Hz (typically associated with sleep), Theta-4-7.5 Hz (associated with waking/falling asleep, some association with cognition), Alpha-8-12 Hz (associated with passive wakefulness, and with cognitive processing), Beta-12-25 Hz (associated with alertness and concentration) and Gamma-25-45 Hz (associated with higher cognitive function). qEEG stands for quantitative electroencephalography. […]\nDuring EEG-ERP experiments, several key waveforms may be evaluated following a stimulus: N200 (associated with stimulus identification and distinction), P300 (associated with selective attention, information processing and cognitive speed/capacity), P200 (associated with aspects of selective attention or stimulus encoding), P50 (assciated with sensory gating, or the reduced neurophysiological response to redundant stimuli), and N100 (associated with early perceptal processes). […]"}, "[9]": {"tested_on": "mitochondrial disease patient cells", "conditions": "cited from earlier work"}, "[10]": {"tested_on": "participants diagnosed with MELAS", "experiment": "MELAS study: cerebral blood flow by arterial spin labeling (ASL)", "type": "in vivo, human", "conditions": "15 mg QD", "experimental": "Two exploratory functional neuroimaging modalities, arterial spin labeling (ASL) and functional magnetic resonance imaging (fMRI), were used to measure the potential PD effects of Compound I in the brain. While ASL quantifies regional CBF during the resting state, fMRI is a relative measure based on the blood-oxygen-level-dependent (BOLD) effect and was conducted during both a resting state and during a visual stimulus to measure brain activity.\nEach individual MRI scanning session took approximately 45 minutes (maximum of ˜1 hour).\nThis change was observed across all brain regions of interest. Effect size throughout this disclosure is defined as the means change from baseline in a particular parameter that is being measured, divided by the standard deviation. Effect sizes closer to 1 or −1 (positive or negative dependent on the direction of movement for the specific parameter, i.e. +0.8 to +1.0 or −0.8 to −1.0) are usually considered large. Effect sizes between 0.5 and 0.8 or −0.5 and −0.8 (positive or negative dependent on the direction of movement for the specific parameter) are usually considered moderate. Effect sizes closer to below 0.5 or −0.5 (positive or negative dependent on the direction of movement for the specific parameter) are usually considered small."}, "[11]": {"conditions": "two weeks, 15 mg QD, compared with placebo"}, "[12]": {"conditions": "healthy elderly, 15 mg QD, after 14 days"}, "[13]": {"conditions": "healthy participants, 15 mg QD for up to 15 days"}}, "data": [{"smiles": "Fc1ccccc1Cc1nc(-c2nc(C(F)(F)F)n[nH]2)cn2ccnc12", "note": "[Compound I, zagociguat]", "values": [{"measurement": "rotenone-induced astrogliosis", "setting": "[1]", "value": "lower rotenone-induced astrogliosis"}, {"measurement": "brain metabolite NAA+NAAG deficits", "setting": "[2]; chronic dosing", "value": "reversed"}, {"measurement": "dendritic spine density", "setting": "[2]; chronic dosing", "value": "improved dendritic spine density"}, {"measurement": "hippocampal long term potentiation (LTP)", "setting": "[2]; chronic dosing", "value": "restored"}, {"measurement": "behavioral task performance", "setting": "[2]; pharmacologically impaired rats", "value": "improved behavioral task performance"}, {"measurement": "neurotrophic factors pCREB and BDNF", "setting": "[2]; rat, in vivo", "value": "increased neurotrophic factors"}, {"measurement": "N200 auditory event-related potential (ERP) latencies", "setting": "[3]; healthy elderly, 15 mg QD", "value": "shortening"}, {"measurement": "gamma power (EEG)", "setting": "[3]; healthy elderly, 15 mg QD", "value": "trend increases in gamma power"}, {"measurement": "posterior alpha power (EEG)", "setting": "[3]; healthy elderly, 15 mg QD", "value": "increases in posterior alpha power"}, {"measurement": "neuroimaging by ASL and fMRI BOLD, MRS measurements, NeuroCart CNS function assessments", "setting": "[3]; healthy elderly", "value": "No changes were observed"}, {"measurement": "CSF concentration of Alpha 2 macroglobulin (A2M)", "setting": "[3]; [11]", "value": "potentially important reductions"}, {"measurement": "CSF concentration of complement C3 (C3)", "setting": "[3]; [11]", "value": "potentially important reductions"}, {"measurement": "participants reporting improvement in their disease (PGIC)", "setting": "[4]; 8 participants", "value": "Three of the 8"}, {"measurement": "participants reporting no change in their disease (PGIC)", "setting": "[4]; 8 participants", "value": 4}, {"measurement": "participants reporting their disease as much worse (PGIC)", "setting": "[4]; 8 participants", "value": 1}, {"measurement": "changes in MFIS and PROMIS at the study level", "setting": "[4]; Day 29", "value": "not observed"}, {"measurement": "gamma power in combination with donepezil", "setting": "[5]; 10 mg/kg orally + 1 mg/kg donepezil, 1-2 hours post-dose", "value": "further increased"}, {"measurement": "qEEG gamma oscillations / gamma power compared to vehicle dosing", "setting": "[5]; oral suspension", "value": "increasing gamma oscillations"}, {"measurement": "gamma power", "setting": "[5]; orally at 10 mg/kg", "value": "increased gamma power"}, {"measurement": "PK data, dose dependence", "setting": "[6]; Phase 1 studies", "value": "linear and dose-dependent"}, {"measurement": "PK data, effect of food", "setting": "[6]; Phase 1 studies", "value": "not impacted by food"}, {"measurement": "cognitive performance measures", "setting": "[6]; [12]", "value": "No impact"}, {"measurement": "neurophysiological parameters by EEG", "setting": "[6]; [12]", "value": "modest impacts"}, {"measurement": "SAEs", "setting": "[6]; [13]", "value": "no SAEs reported"}, {"measurement": "discontinuations due to AEs", "setting": "[6]; [13]", "value": "no discontinuations due to AEs"}, {"measurement": "severity of AEs", "setting": "[6]; [13]", "value": "mild or moderate"}, {"measurement": "PK, dose proportionality", "setting": "[7]", "value": "proportional PK"}, {"measurement": "safety and tolerability", "setting": "[7]", "value": "safe and well tolerated"}, {"measurement": "ERP P300 amplitude", "setting": "[8]; QD dosing, healthy participants aged 18 to 62", "value": "increase in amplitude with increasing dose level"}, {"measurement": "alpha power", "setting": "[8]; day 14, all dosage levels tested, compared to placebo", "value": "Improvements in alpha power"}, {"measurement": "abundance of available adenosine triphosphate (ATP)", "setting": "[9]; mitochondrial disease patient cells", "value": "increasing the abundance of available adenosine triphosphate (ATP)"}, {"measurement": "expression levels of DDAH2", "setting": "[9]; patient cells", "value": "increased expression levels"}, {"measurement": "expression levels of TFAM", "setting": "[9]; patient cells", "value": "increased expression levels"}, {"measurement": "CBF on day 29 compared to baseline (day 1)", "setting": "[10]; ASL, all brain regions of interest", "value": "increase of CBF"}, {"measurement": "patients with increased CBF between day 1 and day 29", "setting": "[10]; individual patients", "value": "5 of the 8"}]}]}
